# From patent publication US10131652B2, “Pyrimidinyloxy benzene derivatives as herbicides” (E. I. DU PONT DE NEMOURS AND COMPANY, priority 2014, dated 2018)
# Where two headings read alike, the source gives them in different places.
# Key:
# Type in all cases: in vivo
# [1] = test system: green foxtail (Setaria viridis); assay: Test E pre-/postemergence plant response; conditions: scale 0 to 100, read-out: Plant response rating, Foxtail, Green; for pest or weed control at 16 g/ha: 16 g ai/ha; for pest or weed control at 31 g/ha: 31 g ai/ha; for pest or weed control at 62 g/ha: 62 g ai/ha; for pest or weed control at 125 g/ha: 125 g ai/ha
# Outline: (§1)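 Visual scores on a 0–100 scale (100 = complete control) were assigned against untreated controls 7–21 days after treatment in a controlled environment. Compounds, formulated with solvent plus surfactant, were applied to pre-emergence silt-loam sowings or to 1- to 4-leaf plants (2–18 cm) in potting medium.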
# [2] = test system: Italian ryegrass (Lolium multiflorum); assay: Test E pre-/postemergence plant response; conditions: scale 0 to 100, read-out: Plant response rating, Ryegrass, Italian; for pest or weed control at 16 g/ha: 16 g ai/ha; for pest or weed control at 31 g/ha: 31 g ai/ha; for pest or weed control at 62 g/ha: 62 g ai/ha; for pest or weed control at 125 g/ha: 125 g ai/ha
# Outline: as §1
# [3] = test system: kochia (Kochia scoparia); assay: Test F pre-/postemergence plant response; conditions: Bassia scoparia, scale 0 to 100, read-out: Plant response rating, Kochia; for pest or weed control at 31 g/ha: 31 g ai/ha
# Outline: (§2)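 Visual control ratings were scored 0 (no effect) to 100 (complete control) versus untreated plants after 14–21 greenhouse days. Compounds, formulated in a surfactant-containing non-phytotoxic solvent, were applied both to silt loam at planting (preemergence) and to 1- to 4-leaf plants 2–18 cm tall (postemergence).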
# [4] = test system: lambsquarters (Chenopodium album); assay: Test F pre-/postemergence plant response; conditions: Chenopodium album, pre-emergence, Preemergence, scale 0 to 100, read-out: Plant response rating, Lambsquarters
# Outline: as §2
# [5] = test system: nightshade (eastern black nightshade, Solanum ptycanthum); assay: Test F pre-/postemergence plant response; conditions: Solanum, pre-emergence, scale 0 to 100, read-out: Plant response rating, Nightshade
# Outline: as §2
# [6] = test system: hairy beggarticks (Bidens pilosa); assay: Test F pre-/postemergence plant response; conditions: Bidens pilosa, scale 0 to 100, read-out: Plant response rating, Beggarticks
# Outline: as §2
# [7] = test system: velvetleaf (Abutilon theophrasti); assay: Test F pre-/postemergence plant response; conditions: Abutilon theophrasti, pre-emergence, scale 0 to 100, read-out: Plant response rating, Velvetleaf
# Outline: as §2
# [8] = test system: goosegrass (Eleusine indica); assay: Test F pre-/postemergence plant response; conditions: Eleusine indica, pre-emergence, scale 0 to 100, read-out: Plant response rating, Goosegrass
# Outline: as §2
# [9] = test system: field bindweed (Convolvulus arvensis); assay: Test F pre-/postemergence plant response; conditions: Convolvulus arvensis, scale 0 to 100, read-out: Plant response rating, Field Bindweed
# Outline: as §2
# [10] = test system: yellow nutsedge (Cyperus esculentus); assay: Test F pre-/postemergence plant response; conditions: Cyperus, pre-emergence, scale 0 to 100, read-out: Plant response rating, Nutsedge, Yellow
# Outline: as §2
# [11] = test system: Italian ryegrass (Lolium multiflorum); assay: Test F pre-/postemergence plant response; conditions: Lolium multiflorum, scale 0 to 100, read-out: Plant response rating, Ryegrass, Italian; for pest or weed control at 31 g/ha: 31 g ai/ha
# Outline: as §2
# [12] = post-emergence, 62 g ai/ha, Postemergence
# [13] = post-emergence, 31 g ai/ha Postemergence
# [14] = post-emergence, 62 g ai/ha Postemergence
# [15] = pre-emergence, 31 g ai/ha Preemergence
# [16] = pre-emergence, 62 g ai/ha Preemergence
smiles,measurement,setting,value
"Fc1cccc(Oc2ncc(Cl)cn2)c1-c1cc(C(F)F)on1 [Compound 55, 5-chloro-2-[2-[5-(difluoromethyl)-3-isoxazolyl]-3-fluorophenoxy]pyrimidine]",pest or weed control at 16 g/ha,"[1]; post-emergence, Postemergence",30%
same,pest or weed control at 31 g/ha,"[1]; post-emergence, Postemergence",45%
same,pest or weed control at 62 g/ha,"[1]; post-emergence, Postemergence",50%
same,pest or weed control at 125 g/ha,"[1]; post-emergence, Postemergence",60%
same,pest or weed control at 16 g/ha,"[1]; pre-emergence, Preemergence",10%
same,pest or weed control at 31 g/ha,"[1]; pre-emergence, Preemergence",25%
same,pest or weed control at 62 g/ha,"[1]; pre-emergence, Preemergence",100%
same,pest or weed control at 125 g/ha,"[1]; pre-emergence, Preemergence",100%
same,pest or weed control at 16 g/ha,"[2]; post-emergence, Postemergence",20%
same,pest or weed control at 31 g/ha,"[2]; post-emergence, Postemergence",20%
same,pest or weed control at 62 g/ha,"[2]; post-emergence, Postemergence",15%
same,pest or weed control at 125 g/ha,"[2]; post-emergence, Postemergence",20%
same,pest or weed control at 16 g/ha,"[2]; pre-emergence, Preemergence",0%
same,pest or weed control at 31 g/ha,"[2]; pre-emergence, Preemergence",0%
same,pest or weed control at 62 g/ha,"[2]; pre-emergence, Preemergence",50%
same,pest or weed control at 125 g/ha,"[2]; pre-emergence, Preemergence",50%
same,pest or weed control at 31 g/ha,"[3]; post-emergence, Postemergence",95%
same,pest or weed control at 62 g/ha,[3]; [12],98%
same,pest or weed control at 31 g/ha,"[3]; pre-emergence, Preemergence",100%
same,pest or weed control at 62 g/ha,"[3]; pre-emergence, Preemergence",100%
same,pest or weed control at 31 g/ha,[4]; 31 g ai/ha,100%
same,pest or weed control at 62 g/ha,[4],100%
same,pest or weed control at 31 g/ha,[5]; 31 g ai/ha Preemergence,98%
same,pest or weed control at 62 g/ha,[5]; Preemergence,98%
same,pest or weed control at 31 g/ha,[6]; [13],55%
same,pest or weed control at 62 g/ha,[6]; [14],70%
same,pest or weed control at 31 g/ha,[6]; [15],0%
same,pest or weed control at 62 g/ha,[6]; [16],0%
same,pest or weed control at 31 g/ha,[7]; 31 g ai/ha Preemergence,100%
same,pest or weed control at 62 g/ha,[7]; Preemergence,100%
same,pest or weed control at 31 g/ha,[8]; 31 g ai/ha Preemergence,5%
same,pest or weed control at 62 g/ha,[8]; Preemergence,50%
same,pest or weed control at 31 g/ha,[9]; [13],25%
same,pest or weed control at 62 g/ha,[9]; [14],70%
same,pest or weed control at 31 g/ha,[9]; [15],0%
same,pest or weed control at 62 g/ha,[9]; [16],10%
same,pest or weed control at 31 g/ha,[10]; 31 g ai/ha Preemergence,0%
same,pest or weed control at 62 g/ha,[10]; Preemergence,0%
same,pest or weed control at 31 g/ha,"[11]; post-emergence, Postemergence",0%
same,pest or weed control at 62 g/ha,[11]; [12],10%
same,pest or weed control at 31 g/ha,"[11]; pre-emergence, Preemergence",0%
same,pest or weed control at 62 g/ha,"[11]; pre-emergence, Preemergence",30%
